Results as given in US12077555B2, “STAT degraders and uses thereof” (Kymera Therapeutics, Inc., priority 2019, dated 2024).

How the values were obtained:
Type in all cases: cell-based
STAT3 = STAT3 (Homo sapiens, UniProt P40763); assay: Quantitation of STAT3 degradation in A549 cells by Western blot; set-up: expressed in transfected cells; host or cells: A549; conditions: read-out: A549 DC50, 24 hours, tested up to 30 μM or 10 μM
How it was run: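 A549 cells treated 24 h at 37° C with compound at 30, 10, 3, 1, 0.3 μM or DMSO; RIPA lysates analysed by SDS-PAGE/Western blot for total STAT3, β-actin as loading control, LI-COR fluorescence read-out. DC50 derived by sigmoidal fit of dose-dependent degradation.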

A3/KAW cells = assay: CellTiter-Glo cell viability, A3/KAW; conditions: DLBCL
mutant STAT3 = mutant STAT3 (Homo sapiens, UniProt P40763, D661Y); assay: STAT3 MSD assay, mutant STAT3 cell lines; conditions: read-out: DC50, mutant STAT3; mutant STAT3 heme cell lines, FIG. 9
Method: 100 nl of compounds were added into the intermediate plate with Echo (Labcyte 550) from source plate containing a 3-fold serial dilution from top concentration of 1 mM. Cells were seeded into 96-well plates (4×10^4 cells/well/100 ul media), mixed well, and incubated for 24 hours. The media was aspirated from the cultures and 60 μL pre-chilled PIPA lysis buffer (Boston BioProducts BP-115D) with protease/phosphatase inhibitor (Roche 05892791001/Roche 04906837001) was added into the well to lyze the cells for 20 minutes at 4° C. The MSD plate (L15XA) was coated with 2 ug/ml capture antibody (ab119352) in PBS and incubated at 4° C. overnight. The next day, the plate was washed three times with TBST (CST #99975), 150 μL/well. MSD plates were blocked with 150 μL blocking buffer per well and shaken for 1 hr at RT and 600 rpm. The blocking buffer was 3% Blocker A (MSD, R93BA-4) in TBST. The MSD plate was washed three times with 150 μL/well of TBST and 70 μL cell lysate was added into the well and shaken for 1 hour at RT and 600 rpm. […] The MSD plate washed three times with 150 μL/well of TBST and added 150 μL/well of 2×MSD reading buffer diluted from 4× (MSD, R92TC-2) with water. Lastly the MSD instrument was read.

[1] = target: T1, mutant STAT3 (STAT D661Y) (Homo sapiens, UniProt P40763, D661Y); assay: degradation of mutant STAT3 in HDLM-2 cell lines, dose response; conditions: dose response curve
T1 construct: endogenous in cells; host or cells: HDLM-2
T1 sequence (P40763 whole entry D661Y): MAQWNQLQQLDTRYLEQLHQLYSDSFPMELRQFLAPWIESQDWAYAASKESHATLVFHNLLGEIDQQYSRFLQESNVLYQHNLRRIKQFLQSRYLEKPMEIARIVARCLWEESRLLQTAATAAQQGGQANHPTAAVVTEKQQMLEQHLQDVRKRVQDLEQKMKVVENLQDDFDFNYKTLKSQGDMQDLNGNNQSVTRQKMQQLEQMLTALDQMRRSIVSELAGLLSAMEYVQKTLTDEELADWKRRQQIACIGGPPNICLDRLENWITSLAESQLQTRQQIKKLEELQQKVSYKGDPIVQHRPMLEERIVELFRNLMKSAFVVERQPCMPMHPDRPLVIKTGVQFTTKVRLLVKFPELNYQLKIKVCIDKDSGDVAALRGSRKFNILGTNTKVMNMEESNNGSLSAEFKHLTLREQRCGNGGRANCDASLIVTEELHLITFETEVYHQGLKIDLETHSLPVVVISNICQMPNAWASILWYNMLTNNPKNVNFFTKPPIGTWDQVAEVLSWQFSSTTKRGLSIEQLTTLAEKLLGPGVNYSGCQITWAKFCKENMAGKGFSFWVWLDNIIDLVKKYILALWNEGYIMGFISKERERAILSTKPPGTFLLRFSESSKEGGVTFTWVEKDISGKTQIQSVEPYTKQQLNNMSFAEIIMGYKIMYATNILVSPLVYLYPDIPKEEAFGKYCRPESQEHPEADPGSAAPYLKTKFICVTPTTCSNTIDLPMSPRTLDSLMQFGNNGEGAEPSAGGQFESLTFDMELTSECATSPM

Sequence of STAT3 (P40763 whole entry): as the sequence (P40763 whole entry D661Y) above, with Y661D counted along it
Sequence of mutant STAT3 (P40763 2-770 D661Y): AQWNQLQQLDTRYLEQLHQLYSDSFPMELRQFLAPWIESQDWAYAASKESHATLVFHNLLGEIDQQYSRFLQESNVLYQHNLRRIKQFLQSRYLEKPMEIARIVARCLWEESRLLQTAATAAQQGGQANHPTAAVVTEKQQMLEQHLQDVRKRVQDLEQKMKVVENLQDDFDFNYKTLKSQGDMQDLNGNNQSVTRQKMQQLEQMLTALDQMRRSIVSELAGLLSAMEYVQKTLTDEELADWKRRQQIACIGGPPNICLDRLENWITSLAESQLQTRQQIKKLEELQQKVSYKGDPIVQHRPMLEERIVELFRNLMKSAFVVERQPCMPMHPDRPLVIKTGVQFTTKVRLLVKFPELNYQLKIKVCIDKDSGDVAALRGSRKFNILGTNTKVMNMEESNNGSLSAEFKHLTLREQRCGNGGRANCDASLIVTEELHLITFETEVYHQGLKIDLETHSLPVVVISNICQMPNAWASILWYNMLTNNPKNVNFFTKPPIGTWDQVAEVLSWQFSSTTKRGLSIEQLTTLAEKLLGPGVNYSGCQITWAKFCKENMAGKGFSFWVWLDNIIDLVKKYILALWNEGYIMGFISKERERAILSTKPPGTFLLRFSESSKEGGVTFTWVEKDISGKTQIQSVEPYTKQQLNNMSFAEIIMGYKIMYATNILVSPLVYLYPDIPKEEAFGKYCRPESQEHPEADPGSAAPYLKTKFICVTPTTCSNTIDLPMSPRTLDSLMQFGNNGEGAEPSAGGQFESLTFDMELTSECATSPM

NC(=O)CC[C@H](NC(=O)[C@@H]1CC[C@@H]2CCN(C(=O)CCCCCC#Cc3cccc4c3CN(C3CCC(=O)NC3=O)C4=O)C[C@H](NC(=O)c3cc4cc(C(=O)P(=O)(O)O)ccc4[nH]3)C(=O)N21)C(=O)NC(c1ccccc1)c1ccccc1 (stereo partly drawn) [Compound I-111, diammonium 2-[[(5S,8S,10aR)-8-[[(1S)-3-carbamoyl-1-(diphenylmethylcarbamoyl)propyl]carbamoyl]-3-[8-[2-(2,6-dioxopiperidin-3-yl)-1-oxo-3H-isoindol-4-yl]oct-7-ynoyl]-6-oxo-octahydropyrrolo[1,2-a][1,5]diazocin-5-yl]carbamoyl]-1H-indole-5-carbonylphosphonate]
DC50 (STAT3): < 30000 nM
IC50 (A3/KAW cells; 96 h, Day 4, read-out: CTG, IC50 μM, Day 4): 1.9 µM
CTG (% Max inh), Day 4 (A3/KAW cells): (50-55) %
DC50 (mutant STAT3): 68 nM
degradation of mutant STAT3 (STAT D661Y) [1]: degrading mutant STAT3
